Patent US20180085330A1, “Dose Adjustment” (AbbVie Inc., priority 2016, published 2018)
Like-named read-outs stand apart in the source and are kept apart here.

Legend:
[1] = Drug interaction studies: pharmacokinetic parameters of coadministered drug in the presence of glecaprevir/pibrentasvir; assay type: in vivo, human
Description: Drug interaction studies were performed with glecaprevir/pibrentasvir and other drugs that are likely to be coadministered and with drugs commonly used as probes for pharmacokinetic interactions.

[2] = cited from earlier work
[3] = EE/Levonorgestrel 20 μg/100 μg once daily, GLE/PIB 300/120 mg once daily
[4] = EE/Norgestimate 35 μg/250 μg once daily, GLE/PIB 300/120 mg once daily
[5] = EVG/COBI/FTC/TAF 150/150/200/10 mg once daily, GLE/PIB 300/120 mg once daily
[6] = sofosbuvir 400 mg once daily, GLE/PIB 400/120 mg once daily
[7] = lovastatin 10 mg once daily, GLE/PIB 300/120 mg once daily
[8] = tacrolimus 1 mg single dose, GLE/PIB 300/120 mg once daily
[9] = valsartan 80 mg single dose, GLE/PIB 300/120 mg once daily
[10] = dabigatran etexilate 150 mg single dose, GLE/PIB 300/120 mg once daily
[11] = dextromethorphan hydrobromide 30 mg single dose, GLE/PIB 300/120 mg once daily
[12] = rilpivirine 25 mg once daily, GLE/PIB 300/120 mg once daily
[13] = omeprazole 20 mg single dose, GLE/PIB 300/120 mg once daily
[14] = losartan 50 mg single dose, GLE/PIB 300/120 mg once daily
[15] = raltegravir 400 mg twice daily, GLE/PIB 300/120 mg once daily
[16] = simvastatin 5 mg once daily, GLE/PIB 300/120 mg once daily
[17] = EFV/FTC/TDF 300/200/300 mg once daily, GLE/PIB 300/120 mg once daily
[18] = pravastatin 10 mg once daily, GLE/PIB 400/120 mg once daily
[19] = pravastatin coadministered with clarithromycin
[20] = rosuvastatin 5 mg once daily, GLE/PIB 400/120 mg once daily
[21] = rosuvastatin coadministered with lopinavir/ritonavir

SMILES: Nc1nc(NC2CC2)c2ncn([C@H]3C=C[C@@H](CO)C3)c2n1 [Abacavir]
- Central Value Ratio (90% CI) Cmin ([1]; ABC/DTG/3TC 600/50/300 mg once daily, GLE/PIB 300/120 mg once daily): 1.31

SMILES: C#C[C@]1(O)CC[C@H]2[C@@H]3CCc4cc(O)ccc4[C@H]3CC[C@@]21C [Ethinyl estradiol (EE), Ethinyl estradiol]
- Central Value Ratio (90% CI) AUC [1, 3]: 1.40
- Central Value Ratio (90% CI) Cmax [1, 3]: 1.30
- Central Value Ratio (90% CI) Cmin [1, 3]: 1.56
- Central Value Ratio (90% CI) AUC [1, 4]: 1.28
- Central Value Ratio (90% CI) Cmax [1, 4]: 1.31
- Central Value Ratio (90% CI) Cmin [1, 4]: 1.38

SMILES: Cn1c(=O)c2c(ncn2C)n(C)c1=O [Caffeine]
- Central Value Ratio (90% CI) AUC ([1]; caffeine 100 mg single dose, GLE/PIB 300/120 mg once daily): 1.35

SMILES: Cc1ncc2n1-c1ccc(Cl)cc1C(c1ccccc1F)=NC2 [Midazolam]
- Central Value Ratio (90% CI) AUC ([1]; midazolam 1 mg single dose, GLE/PIB 300/120 mg once dally): 1.27

SMILES: C#CC1(O)CC[C@H]2[C@@H]3CCC4=CC(=O)CC[C@@H]4[C@H]3CC[C@@]21CC (mixture of isomers) [Norgestrel]
- Central Value Ratio (90% CI) AUC [1, 3]: 1.68
- Central Value Ratio (90% CI) Cmax [1, 3]: 1.37
- Central Value Ratio (90% CI) Cmin [1, 3]: 1.77
- Central Value Ratio (90% CI) AUC [1, 4]: 1.63
- Central Value Ratio (90% CI) Cmax [1, 4]: 1.54
- Central Value Ratio (90% CI) Cmin [1, 4]: 1.75

SMILES: COc1cc2c(cc1Cc1cccc(Cl)c1F)c(=O)c(C(=O)O)cn2[C@H](CO)C(C)C [Elvitegravir]
- Central Value Ratio (90% CI) AUC [1, 5]: 1.47
- Central Value Ratio (90% CI) Cmax [1, 5]: 1.36
- Central Value Ratio (90% CI) Cmin [1, 5]: 1.71

SMILES: C[C@@]1(F)[C@H](O)[C@@H](CO)O[C@H]1n1ccc(=O)[nH]c1=O [GS-331007]
- Central Value Ratio (90% CI) Cmin [1, 6]: 1.85

SMILES: CC[C@H](C)C(=O)O[C@H]1C[C@@H](C)C=C2C=C[C@H](C)[C@H](CC[C@@H]3C[C@@H](O)CC(=O)O3)[C@H]21 [lovastatin]
- Central Value Ratio (90% CI) AUC [1, 7]: 1.70

SMILES: C=CC[C@@H]1/C=C(\C)C[C@H](C)C[C@H](OC)[C@H]2O[C@@](O)(C(=O)C(=O)N3CCCC[C@H]3C(=O)O[C@H](/C(C)=C/[C@@H]3CC[C@@H](O)[C@H](OC)C3)[C@H](C)[C@@H](O)CC1=O)[C@H](C)C[C@@H]2OC [Tacrolimus]
- Central Value Ratio (90% CI) AUC [1, 8]: 1.45
- Central Value Ratio (90% CI) Cmax [1, 8]: 1.50

SMILES: CCCCC(=O)N(Cc1ccc(-c2ccccc2-c2nnn[nH]2)cc1)[C@H](C(=O)O)C(C)C [Valsartan]
- Central Value Ratio (90% CI) AUC [1, 9]: 1.31
- Central Value Ratio (90% CI) Cmax [1, 9]: 1.36

SMILES: [H]/N=C(/N)c1ccc(NCc2nc3cc(C(=O)N(CCC(=O)O)c4ccccn4)ccc3n2C)cc1 [dabigatran]
- Central Value Ratio (90% CI) AUC [1, 10]: 2.38
- Central Value Ratio (90% CI) Cmax [1, 10]: 2.05

SMILES: COc1ccc2c(c1)[C@]13CCCC[C@@H]1[C@H](C2)N(C)CC3 [Dextromethorphan]
- Central Value Ratio (90% CI) AUC [1, 11]: 0.75
- Central Value Ratio (90% CI) Cmax [1, 11]: 0.70

SMILES: Cc1cc(/C=C/C#N)cc(C)c1Nc1ccnc(Nc2ccc(C#N)cc2)n1 [Rilpivirine]
- Central Value Ratio (90% CI) AUC [1, 12]: 1.84
- Central Value Ratio (90% CI) Cmax [1, 12]: 2.05
- Central Value Ratio (90% CI) Cmin [1, 12]: 1.77

SMILES: CC(C)OC(=O)[C@H](C)N[P@](=O)(OC[C@H]1O[C@@H](n2ccc(=O)[nH]c2=O)[C@](C)(F)[C@@H]1O)Oc1ccccc1 [Sofosbuvir]
- Central Value Ratio (90% CI) AUC [1, 6]: 2.25
- Central Value Ratio (90% CI) Cmax [1, 6]: 1.66

SMILES: COc1ccc2[nH]c([S+]([O-])Cc3ncc(C)c(OC)c3C)nc2c1 (stereo not shown) [Omeprazole]
- Central Value Ratio (90% CI) AUC [1, 13]: 0.79
- Central Value Ratio (90% CI) Cmax [1, 13]: 0.57

SMILES: CCCCc1nc(Cl)c(CO)n1Cc1ccc(-c2ccccc2-c2nn[nH]n2)cc1 [Losartan]
- Central Value Ratio (90% CI) AUC [1, 14]: 1.56
- Central Value Ratio (90% CI) Cmax [1, 14]: 2.51

SMILES: Cc1nnc(C(=O)NC(C)(C)c2nc(C(=O)NCc3ccc(F)cc3)c(O)c(=O)n2C)o1 [Raltegravir]
- Central Value Ratio (90% CI) AUC [1, 15]: 1.47
- Central Value Ratio (90% CI) Cmax [1, 15]: 1.34
- Central Value Ratio (90% CI) Cmin [1, 15]: 2.64

SMILES: CCC(C)(C)C(=O)O[C@H]1C[C@@H](C)C=C2C=C[C@H](C)[C@H](CC[C@@H](O)C[C@@H](O)CC(=O)O)[C@H]21 [Simvastatin acid]
- Central Value Ratio (90% CI) AUC [1, 16]: 4.48
- Central Value Ratio (90% CI) Cmax [1, 16]: 10.7

SMILES: C[C@H](Cn1cnc2c(N)ncnc21)OCP(=O)(O)O [Tenofovir]
- Central Value Ratio (90% CI) AUC [1, 17]: 1.29
- Central Value Ratio (90% CI) Cmin [1, 17]: 1.38

SMILES: CC[C@H](C)C(=O)O[C@H]1C[C@H](O)C=C2C=C[C@H](C)[C@H](CC[C@@H](O)C[C@@H](O)CC(=O)O)[C@H]21 [pravastatin]
- Central Value Ratio (90% CI) AUC [1, 18]: 2.30
- Central Value Ratio (90% CI) Cmax [1, 18]: 2.23
- AUC increase [2, 19]: 2.3 fold
- Cmax increase [2, 19]: 2.1 fold

SMILES: CC(C)c1nc(N(C)S(C)(=O)=O)nc(-c2ccc(F)cc2)c1/C=C/[C@@H](O)C[C@@H](O)CC(=O)O [rosuvastatin]
- Central Value Ratio (90% CI) AUC [1, 20]: 2.15
- Central Value Ratio (90% CI) Cmax [1, 20]: 5.62
- AUC increase [2, 21]: 2.1 fold
- Cmax increase [2, 21]: 5 fold

SMILES: CCC(C)(C)C(=O)O[C@H]1C[C@@H](C)C=C2C=C[C@H](C)[C@H](CC[C@@H]3C[C@@H](O)CC(=O)O3)[C@H]21 [simvastatin]
- Central Value Ratio (90% CI) AUC [1, 16]: 2.32
- Central Value Ratio (90% CI) Cmax [1, 16]: 1.99

SMILES: C#C[C@]1(O)CC[C@H]2[C@@H]3CCC4=CC(=NO)CC[C@@H]4[C@H]3CC[C@@]21CC (mixture of isomers) [Norgestromin]
- Central Value Ratio (90% CI) AUC [1, 4]: 1.44
- Central Value Ratio (90% CI) Cmin [1, 4]: 1.45

SMILES: CC[C@H](C)C(=O)O[C@H]1C[C@@H](C)C=C2C=C[C@H](C)[C@H](CC[C@@H](O)C[C@@H](O)CC(=O)O)[C@H]21 [Lovastatin acid]
- Central Value Ratio (90% CI) AUC [1, 7]: 4.10
- Central Value Ratio (90% CI) Cmax [1, 7]: 5.73
